Data reported in US20090068290A1, “BIFEPRUNOX DOSES FOR TREATING SCHIZOPHRENIA” (priority 2006, published 2009).

What was measured:
Format in all cases: in vivo, human
[1] = test system: adult subjects with schizophrenia; assay: PANSS general psychopathology subscale score, Clinical Study Three; conditions: LOCF; for Change from Baseline in PASS General Psychopathology Subscale Score, Mean (SD) / Change from Baseline in PASS General Psychopathology Subscale Score, Median: Olanzapine 15 mg, ITT population
Excerpt: SECONDARY OBJECTIVES To assess the efficacy of bifeprunox in treating schizophrenia using the Positive Symptom sub-scale score of the PANSS, the Negative Symptom sub-scale score of the PANSS, the General Psychopathology sub-scale of the PANSS, Brief Psychiatric Rating Scale (BPRS) total score derived from the PANSS, BPRS psychosis score derived from the PANSS, the Clinical Global Impression Severity of Illness score (CGI-S), the Clinical Global Impression Improvement score (CGI-I), CGI-I responder rate, PANSS responder rate based on the PANSS total score, Calgary Depression Scale for Schizophrenia (CDSS), and Subject Satisfaction rating.
There were four treatment arms in this study, approximately 144 subjects per arm. […] After completing the Single-Blind Placebo Lead-in Period of at least three days, bifeprunox-treated subjects were titrated from 0.25 mg up to 20 mg/day or 30 mg/day according to a standardized titration scheme over a seven- or eight-day period, respectively. When the assigned dose was reached, subjects were maintained at that dose for the remainder of the six week treatment period. […] Subjects were hospitalized (if not already inpatients) after eligibility for study entry was verified, starting from the Screening Visit until at least 10 days after Baseline. Subjects could be hospitalized longer than 10 days if considered medically necessary by the Investigator. Rating scale assessments for efficacy and abnormal movement disorders were done weekly except for Week 5. […] Subject satisfaction with study medication was assessed at Week 6.

[2] = test system: adult subjects with schizophrenia; assay: CGI Severity of Illness score, Clinical Study One; conditions: Risperidone 6 mg, ITT population
Method: (§1) There were five treatment groups in this study. […] Study medication was administered once daily. After Baseline measurements were performed, the titration phase was begun. Bifeprunox treated subjects were titrated up to 5 mg, 10 mg or 20 mg according to a standardized titration schedule (Day 1: 0.125 mg, Day 2: 0.25 mg, Day 3: 0.5 mg, Day 4: 1.0 mg, Day 5: 2.0 mg, Day 6: 5.0 mg, Day 7: 10.0 mg, Day 8: 20 mg). When the assigned dose was reached, subjects were maintained at that dose for the remainder of the six-week treatment period.
(§2) The change in the Positive and Negative Symptom Scale (PANSS) total score, from baseline to endpoint, was the primary outcome measure. Secondary efficacy measures included: PANSS positive, PANSS negative, PANSS general psychopathology (GPP) score, PANSS-derived Brief Psychiatric Rating Scale (BPRS) score, Clinical Global Impressions-Severity of Illness (CGI-S), CGI-Improvement (CGI-I) scores, and responder rates. Safety and tolerability evaluations included extrapyramidal symptoms (EPS), weight gain, lipid profile, and serum prolactin.

[3] = test system: adult subjects with schizophrenia; assay: PANSS positive subscale score, Clinical Study One; conditions: Risperidone 6 mg, ITT
Method: as §1, §2

Cc1cc2c(s1)Nc1ccccc1N=C2N1CCN(C)CC1 [Olanzapine, olanzapine, reference compound]
Change from Baseline in PASS General Psychopathology Subscale Score, Mean (SD) ([1]; Week 1): −4.5 (6.2)
Change from Baseline in PASS General Psychopathology Subscale Score, Median ([1]; Week 1): −3
Change from Baseline in PASS General Psychopathology Subscale Score, Mean (SD) ([1]; Week 2): −7.2 (7.8)
Change from Baseline in PASS General Psychopathology Subscale Score, Median ([1]; Week 2): −6
Change from Baseline in PASS General Psychopathology Subscale Score, Mean (SD) ([1]; Week 3): −9.3 (8.3)
Change from Baseline in PASS General Psychopathology Subscale Score, Median ([1]; Week 3): −8
Change from Baseline in PASS General Psychopathology Subscale Score, Mean (SD) ([1]; Week 4): −9.6 (8.6)
Change from Baseline in PASS General Psychopathology Subscale Score, Median ([1]; Week 4): −9
Change from Baseline in PASS General Psychopathology Subscale Score, Mean (SD) ([1]; Week 6/Endpoint): −10.5 (9.4)
Change from Baseline in PASS General Psychopathology Subscale Score, Median ([1]; Week 6/Endpoint): −9
mean change (SD) from Baseline to Endpoint in PANSS general psychopathology subscale score ([1]; olanzapine 15 mg, ITT): −10.5 (9.4)

Cc1nc2n(c(=O)c1CCN1CCC(c3noc4cc(F)ccc34)CC1)CCCC2 [Risperidone, risperidone, reference compound]
Change from Baseline in CGI Severity of Illness Score, Mean (S.D.) ([2]; Endpoint LOCF): −0.76 (0.93)
Change from Baseline in CGI Severity of Illness Score, Median ([2]; Endpoint LOCF): 0.0
Change from Baseline in CGI Severity of Illness Score, Mean (S.D.) ([2]; Week 1, LOCF): −0.37 (0.68)
Change from Baseline in CGI Severity of Illness Score, Median ([2]; Week 1, LOCF): 0.0
Change from Baseline in CGI Severity of Illness Score, Mean (S.D.) ([2]; Week 2, LOCF): −0.60 (0.83)
Change from Baseline in CGI Severity of Illness Score, Median ([2]; Week 2, LOCF): 0.0
Change from Baseline in CGI Severity of Illness Score, Mean (S.D.) ([2]; Week 3, LOCF): −0.70 (0.81)
Change from Baseline in CGI Severity of Illness Score, Median ([2]; Week 3, LOCF): 0.0
Change from Baseline in CGI Severity of Illness Score, Mean (S.D.) ([2]; Week 4, LOCF): −0.69 (0.85)
Change from Baseline in CGI Severity of Illness Score, Median ([2]; Week 4, LOCF): 0.0
Change from Baseline in PANSS Positive Subscale Score, Mean (S.D.) ([3]; Endpoint LOCF): −5.3 (4.8)
Change from Baseline in PANSS Positive Subscale Score, Median ([3]; Endpoint LOCF): −5
Change from Baseline in PANSS Positive Subscale Score, Mean (S.D.) ([3]; Week 1, LOCF): −2.7 (3.4)
Change from Baseline in PANSS Positive Subscale Score, Median ([3]; Week 1, LOCF): −2
Change from Baseline in PANSS Positive Subscale Score, Mean (S.D.) ([3]; Week 2, LOCF): −4.3 (4.2)
Change from Baseline in PANSS Positive Subscale Score, Median ([3]; Week 2, LOCF): −4
Change from Baseline in PANSS Positive Subscale Score, Mean (S.D.) ([3]; Week 3, LOCF): −5.0 (4.6)
Change from Baseline in PANSS Positive Subscale Score, Median ([3]; Week 3, LOCF): −5
Change from Baseline in PANSS Positive Subscale Score, Mean (S.D.) ([3]; Week 4, LOCF): −4.9 (4.6)
Change from Baseline in PANSS Positive Subscale Score, Median ([3]; Week 4, LOCF): −4
